Drawing on patent publication US20260325654A1, “METHODS AND COMPOSITIONS FOR TARGETED PROTEIN DEGRADATION” (Ranok Therapeutics (Hangzhou) Co. Ltd., priority 2023, published 2026), this text covers IC50 and Dmax for 15 molecules.

Some results are limits rather than exact numbers.

One assay concerns NCIH727. Put plainly: CellTiter-Glo Reagent cancer cell line proliferation assay, NCIH727. Format: cell-based, human. To be noted: Homo sapiens, NCI-H727, 24 h, NCIH727, KRAS(G12V) heterozygous. The source says: (§1) The following cancer cell lines were employed: • AsPC-1 human pancreatic adenocarcinoma, homozygous KRAS(G12D), (ATCC, #CRL-1682); A-427 human lung carcinoma, heterozygous KRAS(G12D), (ATCC, #HTB-53); AGS human gastric adenocarcinoma, heterozygous KRAS(G12D), (ATCC, #CRL-1739); GP2D human colon adenocarcinoma, heterozygous KRAS(G12D), (Sigma Aldrich, 95090714); SW1990 human pancreatic adenocarcinoma, homozygous KRAS(G12D), (ATCC, #CRL2172); LU65A human lung giant cell carcinoma, heterozygous KRAS(G12C), (JCRB Cell Bank, #JCRB0054); NCIH727 human lung carcinoid, heterozygous KRAS(G12V), (ATCC, #CRL-5815); MKN1 human gastric adenosquamous carcinoma KRAS (wt), (JCRB Cell Bank, #JCRB0252). Cell lines were cultured according to ATCC, JCRB and Sigma Aldrich recommendations.
(§2) Cells were plated in 96-well tissue culture plates at 4,000 cells/well and incubated at 37° C./5% CO2 for 24 hr in 100 μl of media. 3-fold serial dilutions of each test compound were prepared ranging from 20 μM to 1.02 nM. Cells were then treated with test compounds at various concentrations with a final concentration of 0.5% DMSO/well, and then incubated at 37° C./5% CO2 for 24 hr. 100 μl of CellTiter-Glo® Reagent (Promega Corporation, Madison, WI) was added to each well and processed according manufacturer's protocol. Results were analyzed and IC50-values were calculated in GraphPad 7 software.

Another assay relates to GP2D. Put plainly: CellTiter-Glo Reagent cancer cell line proliferation assay, GP2D. The note with it: Homo sapiens, KRAS(G12D) heterozygous, 24 hr. Format: cell-based.
Source text: as §1, §2

The subject of the next assay is LU65A. In words: CellTiter-Glo Reagent cancer cell line proliferation assay, LU65A. Format: cell-based, human. To be noted: Homo sapiens, 24 h, KRAS(G12C) heterozygous.
Source text: as §1, §2

In a further assay the test system is AGS. In words: CellTiter-Glo Reagent cancer cell line proliferation assay, AGS. To be noted: Homo sapiens, 24 h, KRAS(G12D) heterozygous. Format: cell-based, human.
Source text: as §1, §2

The test system of the next assay is MKN1. Put plainly: CellTiter-Glo Reagent cancer cell line proliferation assay, MKN1. Format: cell-based. The note with it: Homo sapiens, MKN-1; MKN1, KRAS (wt), 24 hr.
Source text: as §1, §2

The next assay has as its target KRAS(G12D) (Homo sapiens, UniProt P01116, G12D). In words: cell-based. Format: cell-based. Set-up: Cell lines SW1990 and GP2D that express KRAS(G12D); host or cells: SW1990. The note with it: SW1990, read-out: WB data SW1990 DMax. Here is the method:
Cell lines were cultured according to ATCC, JCRB and Sigma Aldrich recommendations.
Cells were then washed with cold PBS, aspirated and cold RIPA buffer containing a protease/phosphatase inhibitor cocktail was added to lyse cells. After centrifugation, the total protein concentrations of cell lysates were determined using the BCA protein assay. Samples were normalized for equivalent protein concentrations, 5× SDS-PAGE loading buffer added and denatured at 100° C. for 10 min. 20 μl of each sample/well was loaded on a SDS-PAGE gel and electrophoresed for 20 min at 80 V, then 120 V for 1.5 hr. Gels were then electroblotted to nitrocellulose membranes using a wet-transfer method at 250 mA for 2.5 hr. Membranes were incubated with blocking buffer for 1 hr and washed 3 times with TBST for 5 min. Membranes were then incubated with anti-KRAS (Sigma-Aldrich, #SAB1404011) and anti-β-Actin monoclonal antibodies (Cell Signaling Technology, #3700) diluted in blocking buffer at 4° C. overnight per the manufacturer's recommendations. After washing 3 times, blots were incubated with appropriately labeled secondary antibodies for 1 hr at room temperature and washed again. Fluorescence imaging and quantitation was performed using a LI-COR Odyssey. Results was analyzed using GraphPad Prism 7 software. Compound concentrations that induced KRAS degradation (DC50 and DCmax) were calculated using GraphPad Prism 7 software.

Chain of KRAS(G12D) (P01116 1-188 isoform P01116-2 G12D): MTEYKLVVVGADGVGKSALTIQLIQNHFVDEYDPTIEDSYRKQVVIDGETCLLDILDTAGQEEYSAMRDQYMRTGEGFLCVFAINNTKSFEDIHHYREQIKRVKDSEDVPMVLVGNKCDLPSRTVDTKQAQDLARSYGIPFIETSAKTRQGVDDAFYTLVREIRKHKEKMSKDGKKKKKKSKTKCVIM

Turning to `C#Cc1c(F)ccc2cc(O)cc(-c3nc(OC)c4c(N5CC6CCC(C5)N6C(=O)CCC#N)nc(OCC5(CN6CCN(CC7CCN(c8ccc9c(c8)CN(C8CCC(=O)NC8=O)C9=O)CC7)CC6)CC5)nc4c3F)c12` (stereo not drawn) [Compound 117], the IC50 in the assay with NCIH727 was less than 100 nM; with GP2D, less than 100 nM; with LU65A, less than 100 nM; in the assay with AGS, less than 100 nM; in the assay with MKN1, 100 to 1000 nM.
`C#Cc1cccc2cc(O)cc(-c3ncc4c(N5CC6CCC(C5)N6)nc(OCC5(CN6CCN(CC7CCN(CC(=O)N[C@@H](C(=O)N8C[C@@H](O)C[C@@H]8C(=O)NCc8ccc(-c9scnc9C)cc8)C(C)(C)C)CC7)CC6)CC5)nc4c3F)c12` [Compound 52]: the Dmax at KRAS(G12D) is more than 50%.
Consider `C#Cc1c(F)ccc2cc(O)cc(-c3ncc4c(N5CC6CCC(C5)N6C(=O)/C(C#N)=C/C5CC5)nc(OCC5(CN6CCN(CC7CCN(c8ccc9c(c8)CN(C8CCC(=O)NC8=O)C9=O)CC7)CC6)CC5)nc4c3F)c12` (stereo not drawn) [Compound 124], for which the IC50 with NCIH727 is more than 1000 nM; in the assay with GP2D, 100 to 1000 nM; with LU65A, less than 100 nM; with AGS it was 100 to 1000 nM; in the assay on MKN1, more than 1000 nM.
In the case of `C#Cc1c(F)ccc2cc(O)cc(-c3nc(OC)c4c(N5CCN(C(=O)CC#N)[C@@H](CC#N)C5)nc(OCC5(CN6CCN(CC7CCN(c8ccc9c(c8)CN(C8CCC(=O)NC8=O)C9=O)CC7)CC6)CC5)nc4c3F)c12` (stereo partly drawn) [Compound 104], the IC50 was more than 1000 nM in the assay with NCIH727; more than 1000 nM in the assay with GP2D; 100 to 1000 nM in the assay with LU65A; more than 1000 nM with AGS; 100 to 1000 nM with MKN1.
Turning to `C#Cc1c(F)ccc2cc(O)cc(-c3nc(OC)c4c(N5CC6CCC(C5)N6C(=O)NCC#N)nc(OCC5(CN6CCN(CC7CCN(c8ccc9c(c8)CN(C8CCC(=O)NC8=O)C9=O)CC7)CC6)CC5)nc4c3F)c12` (stereo not drawn) [Compound 122], the IC50 is 100 to 1000 nM in the assay on NCIH727; less than 100 nM with GP2D; less than 100 nM with LU65A; less than 100 nM in the assay on AGS; more than 1000 nM in the assay on MKN1.
With `C#Cc1c(F)ccc2cc(O)cc(-c3ncc4c(N5CC6CCC(C5)N6)nc(OCC5(CN6CCC(N7CCC(c8ccc9c(c8)CN(C8CCC(=O)NC8=O)C9=O)CC7)CC6)CC5)nc4c3F)c12` (stereo not drawn) [Compound 77], the Dmax at KRAS(G12D) is more than 50%.
`C#Cc1c(F)ccc2cc(O)cc(-c3ncc4c(N5CC6CCC(C5)N6C(=O)NC(C)(C)C)nc(OCC5(CN6CCN(CC7CCN(c8ccc9c(c8)CN(C8CCC(=O)NC8=O)C9=O)CC7)CC6)CC5)nc4c3F)c12` (stereo not drawn) [Compound 118]: the IC50 in the assay on NCIH727 was more than 1000 nM; in the assay on GP2D, less than 100 nM; with LU65A, 100 to 1000 nM; with AGS it was 100 to 1000 nM; in the assay on MKN1 it was 100 to 1000 nM.
On to `O=CO.[2H]C([2H])([2H])Oc1nc(-c2cc(O)cc3ccc(F)c(C#C)c23)c(F)c2nc(OCC3(CN4CCN(CC5CCN(c6ccc7c(c6)CN(C6CCC(=O)NC6=O)C7=O)CC5)CC4)CC3)nc(N3CC4CCC(C3)N4C(=O)C(C#N)CC(F)(F)F)c12` (stereo not drawn) [Compound 121], for which the IC50 in the assay on NCIH727 is more than 1000 nM; in the assay on GP2D, 100 to 1000 nM; with LU65A, less than 100 nM; with AGS, more than 1000 nM; with MKN1, more than 1000 nM.
For the molecule `[2H]C([2H])([2H])Oc1nc(-c2cc(O)cc3ccc(F)c(C#C)c23)c(F)c2nc(OCC3(CN4CCN(CC5CCN(c6ccc(NC7CCC(=O)NC7=O)cc6)CC5)CC4)CC3)nc(N3CC4CCC(C3)N4C(=O)CC#N)c12` (stereo not drawn) [Compound 119], the IC50 with NCIH727, in the assay on GP2D, with LU65A, in the assay with AGS and with MKN1 was 100 to 1000 nM each time.
With `C#Cc1c(F)ccc2cc(O)cc(-c3ncc4c(N5CC6CCC(C5)N6C(=O)[C@H](C)C#N)nc(OCC5(CN6CCN(CC7CCN(c8ccc9c(c8)CN(C8CCC(=O)NC8=O)C9=O)CC7)CC6)CC5)nc4c3F)c12` (stereo partly drawn) [Compound 110], the IC50 with NCIH727 was 100 to 1000 nM; in the assay on GP2D, more than 1000 nM; in the assay on LU65A, less than 100 nM; in the assay on AGS, more than 1000 nM; with MKN1, 100 to 1000 nM.
Consider `[2H]C([2H])([2H])Oc1nc(-c2cc(O)cc3ccc(F)c(C#C)c23)c(F)c2nc(OCC3(CN4CCN(CC5CCN(c6ccc7c(c6)CN(C6CCC(=O)NC6=O)C7=O)CC5)CC4)CC3)nc(N3CC4CCC(C3)N4C(=O)C(C)CC#N)c12` (stereo not drawn) [Compound 116], for which the 50% inhibitory concentration (IC50) in the assay with NCIH727 was more than 1000 nM; in the assay with GP2D, 100 to 1000 nM; with LU65A it was 100 to 1000 nM; with AGS, 100 to 1000 nM; in the assay with MKN1, 100 to 1000 nM.
Consider `C#Cc1c(F)ccc2cc(O)cc(-c3nc(OC)c4c(N5CCN(C(=O)C=C)[C@@H](CC#N)C5)nc(OCC5(CN6CCN(CC7CCN(c8ccc9c(c8)CN(C8CCC(=O)NC8=O)C9=O)CC7)CC6)CC5)nc4c3F)c12` (stereo partly drawn) [Compound 125], for which the IC50 with LU65A and in the assay with MKN1 was less than 100 nM throughout.
In the case of `C#Cc1c(F)ccc2cc(O)cc(-c3nc(OC)c4c(N5CC6CCC(C5)N6)nc(OCC5(CN6CCN(C7CCN(c8ccc9c(c8)CN(C8CCC(=O)NC8=O)C9=O)CC7)CC6)CC5)nc4c3F)c12` (stereo not drawn) [Compound 82], on KRAS(G12D), the Dmax was more than 50%.
Take `C#Cc1c(F)ccc2cc(O)cc(-c3nc(OC)c4c(N5CC6CCC(C5)N6C(=O)NCC(F)(F)F)nc(OCC5(CN6CCN(CC7CCN(c8ccc9c(c8)CN(C8CCC(=O)NC8=O)C9=O)CC7)CC6)CC5)nc4c3F)c12` (stereo not drawn) [Compound 123]: the IC50 in the assay with NCIH727 is less than 100 nM; in the assay with GP2D it was less than 100 nM; with LU65A, less than 100 nM; in the assay with AGS it was less than 100 nM; in the assay with MKN1, more than 1000 nM.
For the molecule `C#Cc1c(F)ccc2cc(O)cc(-c3ncc4c(N5C[C@H]6CC[C@@H](C5)N6)nc(OCC5(CN6CCC(CN7CCC(c8ccc9c(c8)CN(C8CCC(=O)NC8=O)C9=O)C(F)(F)C7)CC6)CC5)nc4c3F)c12` (stereo partly drawn) [Compound 93, 3-(5-(1-((1-((1-(((4-((1R,5S)-3,8-diazabicyclo[3.2.1]octan-3-yl)-7-(8-ethynyl-7-fluoro-3-hydroxynaphthalen-1-yl)-8-fluoropyrido[4,3-d]pyrimidin-2-yl)oxy)methyl)cyclopropyl)methyl)piperidin-4-yl)methyl)-3,3-difluoropiperidin-4-yl)-1-oxoisoindolin-2-yl) piperidine-2,6-dione], the IC50 in the assay with GP2D and in the assay with AGS was less than 100 nM each time.
